Experimental data: patent US9290459B1, “Substituted bicyclic dihydropyrimidinones and their use as inhibitors of neutrophil elastase activity” (Boehringer Ingelheim International GmbH, priority 2013, dated 2016)

Each compound was assayed against Human neutrophil elastase (Homo sapiens (Human), UniProt P08246) (assay: Human Neutrophil Elastase Assay). Conditions: human neutrophil elastase, substrate MeOSuc-Ala-Ala-Pro-Val-AMC 250 μM, pH 7.5; read-out: IC50.
Assay type: biochemical

Human neutrophil elastase, sequence (P08246 30-247): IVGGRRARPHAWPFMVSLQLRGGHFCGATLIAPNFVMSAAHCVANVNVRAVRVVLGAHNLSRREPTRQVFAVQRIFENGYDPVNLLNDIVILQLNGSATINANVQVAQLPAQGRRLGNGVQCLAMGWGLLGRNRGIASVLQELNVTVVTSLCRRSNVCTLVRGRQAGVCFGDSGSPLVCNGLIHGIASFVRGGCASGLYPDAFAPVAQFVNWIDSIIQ

| SMILES | IC50 [nM] |
| --- | --- |
| Cc1cc(C#N)ccc1C1C2=C(CCC2=O)N(c2cccc(C(F)(F)F)c2)C(=O)N1C (centres unmarked) [Example 26.2] | 6.4 |
| COc1cc(C#N)ccc1C1C2=C(CCC2=O)N(c2cccc(C(F)(F)F)c2)C(=O)N1C (centres unmarked) [Example 26.3] | 9.5 |
| CN1C(=O)N(c2cccc(C(F)(F)F)c2)C2=C(C(=O)CC2)C1c1ccc(C#N)cc1Cl (centres unmarked) [Example 26.4] | 26.2 |
| CN1C(=O)N(c2cccc(C(F)F)c2)C2=C(C(=O)CC2)[C@@H]1c1ccc(C#N)cc1 [Example 26B, (S)-4-(1-(3-(Difluoromethyl)phenyl)-3-methyl-2,5-dioxo-2,3,4,5,6,7-hexahydro-1H-cyclopenta[d]pyrimidin-4-yl)benzonitrile] | 3410 |
| CN1C(=O)N(c2cccc(C(F)F)c2)C2=C(C(=O)CC2)C1c1ccc(C#N)cc1S(C)(=O)=O (centres unmarked) [Example 27, 4-(1-(3-(Difluoromethyl)phenyl)-3-methyl-2,5-dioxo-2,3,4,5,6,7-hexahydro-1H-cyclopenta[d]pyrimidin-4-yl)-3-(methylsulfonyl)benzonitrile] | 1.9 |
| CSc1cc(C#N)ccc1C1C2=C(CCC2=O)N(c2cccc(C(F)(F)F)c2)C(=O)N1C (centres unmarked) [Example 27.1, 4-(3-methyl-2,5-dioxo-1-(3-(trifluoromethyl)phenyl)-2,3,4,5,6,7-hexahydro-1H-cyclopenta[d]pyrimidin-4-yl)-3-(methylthio)benzonitrile] | 4.6 |
| CN1C(=O)N(c2cccc(C(F)(F)F)c2)C2=C(C(=O)CC2)C1c1ccc(C#N)cc1Br (centres unmarked) [Example 27.2] | 7.1 |
| CCS(=O)(=O)c1cc(C#N)ccc1C1C2=C(CCC2=O)N(c2cccc(C(F)(F)F)c2)C(=O)N1C (centres unmarked) [Example 27.3] | 1.2 |
| CN1C(=O)N(c2ccnc(C(F)(F)F)c2)C2=C(C(=O)CC2)C1c1ccc(C#N)cc1 (centres unmarked) [Example 28, 4-(3-Methyl-2,5-dioxo-1-(2-(trifluoromethyl)pyridin-4-yl)-2,3,4,5,6,7-hexahydro-1H-cyclopenta[d]pyrimidin-4-yl)benzonitrile] | 36.7 |
| CS(=O)(=O)N1C(=O)N(c2cccc(C(F)F)c2)C2=C(C(=O)CC2)C1c1ccc(C#N)cc1 (centres unmarked) [Example 36, 4-(1-(3-(Difluoromethyl)phenyl)-3-(methylsulfonyl)-2,5-dioxo-2,3,4,5,6,7-hexahydro-1H-cyclopenta[d]pyrimidin-4-yl)benzonitrile] | 7.2 |
| CS(=O)(=O)c1cc(C#N)ccc1[C@@H]1C2=C(CCC2=O)N(c2cccc(C(F)(F)F)c2)C(=O)N1S(C)(=O)=O [Example 37, 3-(Methylsulfonyl)-4-(3-(methylsulfonyl)-2,5-dioxo-1-(3-(trifluoromethyl)phenyl)-2,3,4,5,6,7-hexahydro-1H-cyclopenta[d]pyrimidin-4-yl)benzonitrile] | < 1 |
| Cc1cc(C#N)ccc1C1C2=C(CCC2=O)N(c2cccc(C(F)(F)F)c2)C(=O)N1S(C)(=O)=O (centres unmarked) [Example 37.1] | 3.7 |
| CS(=O)(=O)c1cc(C#N)ccc1C1C2=C(CCC2=O)N(c2cccc(C(F)(F)F)c2)C(=O)N1S(C)(=O)=O (centres unmarked) [Example 37.3] | 1.9 |
| CS(=O)(=O)N1C(=O)N(c2cccc(C(F)(F)F)c2)C2=C(C(=O)CC2)C1c1ccc(C#N)cn1 (centres unmarked) [Example 38.1] | 37.7 |
| COc1cc(C#N)ccc1C1C2=C(CCC2=O)N(c2cccc(C(F)(F)F)c2)C(=O)N1S(C)(=O)=O (centres unmarked) [Example 38.2] | 34.1 |
| CS(=O)(=O)c1cc(C#N)ccc1C1C2=C(CCC2=O)N(c2ccnc(C(F)(F)F)c2)C(=O)N1S(C)(=O)=O (centres unmarked) [Example 39, 3-(Methylsulfonyl)-4-(3-(methylsulfonyl)-2,5-dioxo-1-(2-(trifluoromethyl)pyridin-4-yl)-2,3,4,5,6,7-hexahydro-1H-cyclopenta[d]pyrimidin-4-yl)benzonitrile] | 7 |
| CS(=O)(=O)c1cc(C#N)ccc1[C@@H]1C2=C(CCC2=O)N(c2cccc(C(F)(F)F)c2)C(=O)N1C(=O)NCC#N [Example 47.3] | < 1 |
| CC(C)(CO)NC(=O)N1C(=O)N(c2cccc(C(F)(F)F)c2)C2=C(C(=O)CC2)[C@H]1c1ccc(C#N)cc1S(C)(=O)=O [Example 47.14] | < 1 |
| CS(=O)(=O)c1cc(C#N)ccc1[C@@H]1C2=C(CCC2=O)N(c2cccc(C(F)(F)F)c2)C(=O)N1C(=O)N[C@H]1CCCC[C@@H]1O [Example 47.21] | < 1 |
| CCNC(=O)N1C(=O)N(c2cccc(C(F)(F)F)c2)C2=C(C(=O)CC2)C1c1ccc(C#N)cc1S(=O)(=O)CC (centres unmarked) [Example 51.3] | < 1 |

Results, then the compound that gave them:

| IC50 [nM] | SMILES |
| --- | --- |
| 3.2 | COC(=O)CCCS(=O)(=O)N1C(=O)N(c2cccc(C(F)(F)F)c2)C2=C(C(=O)CC2)C1c1ccc(C#N)cc1 (centres unmarked) [Example 34, Methyl 4-(4-(4-Cyanophenyl)-2,5-dioxo-1-(3-(trifluoromethyl)phenyl)-6,7-dihydro-1H-cyclopenta[d]pyrimidin-3(2H,4H,5H)-ylsulfonyl)butanoate] |
| 2.2 | N#Cc1ccc(C2C3=C(CCC3=O)N(c3cccc(C(F)(F)F)c3)C(=O)N2C(N)=O)cc1 (centres unmarked) [Example 40, 4-(4-Cyanophenyl)-2,5-dioxo-1-(3-(trifluoromethyl)phenyl)-4,5,6,7-tetrahydro-1H-cyclopenta[d]pyrimidine-3(2H)-carboxamide] |
| 1.4 | CC(C)(O)CNC(=O)N1C(=O)N(c2cccc(C(F)(F)F)c2)C2=C(C(=O)CC2)C1c1ccc(C#N)cc1 (centres unmarked) [Example 41, 4-(4-Cyanophenyl)-N-(2-hydroxy-2-methylpropyl)-2,5-dioxo-1-(3-(trifluoromethyl)-phenyl)-4,5,6,7-tetrahydro-1H-cyclopenta[d]pyrimidine-3(2H)-carboxamide] |
| 40.4 | CC(C)(O)CNC(=O)N1C(=O)N(c2cccc(C(F)(F)F)c2)C2=C(C(=O)CC2)[C@@H]1c1ccc(C#N)cc1 [Example 41B, (S)-4-(4-Cyanophenyl)-N-(2-hydroxy-2-methylpropyl)-2,5-dioxo-1-(3-(trifluoro-methyl)phenyl)-4,5,6,7-tetrahydro-1H-cyclopenta[d]pyrimidine-3(2H)-carboxamide] |
| < 1 | N#Cc1ccc(C2C3=C(CCC3=O)N(c3cccc(C(F)(F)F)c3)C(=O)N2C(=O)NC2CC[S+]([O-])CC2)cc1 (centres unmarked) [Example 43, 4-(4-Cyanophenyl)-2,5-dioxo-N-(1-oxo-hexahydro-1λ^4-thiopyran-4-yl)-1-(3-(trifluoro-methyl)phenyl)-4,5,6,7-tetrahydro-1H-cyclopenta[d]pyrimidine-3(2H)-carboxamide] |
| < 1 | N#Cc1ccc(C2C3=C(CCC3=O)N(c3cccc(C(F)(F)F)c3)C(=O)N2C(=O)NC2CCS(=N)(=O)CC2)cc1 (centres unmarked) [Example 44, 4-(4-Cyanophenyl)-2,5-dioxo-N-(1-imino-1-oxo-hexahydro-1λ^6-thiopyran-4-yl)-1-(3-(trifluoromethyl)phenyl)-4,5,6,7-tetrahydro-1H-cyclopenta[d]pyrimidine-3(2H)-carboxamide] |
| < 1 | CS(=O)(=O)c1cc(C#N)ccc1[C@@H]1C2=C(CCC2=O)N(c2cccc(C(F)(F)F)c2)C(=O)N1C(=O)NC1CCOCC1 [Example 47.15] |
| < 1 | CS(=O)(=O)c1cc(C#N)ccc1[C@@H]1C2=C(CCC2=O)N(c2cccc(C(F)(F)F)c2)C(=O)N1C(=O)NCC1CC(O)C1 (some centres unmarked) [Example 47.16] |
| < 1 | CS(=O)(=O)c1cc(C#N)ccc1[C@@H]1C2=C(CCC2=O)N(c2cccc(C(F)(F)F)c2)C(=O)N1C(=O)NCC1(O)CCC1 [Example 47.17] |
| < 1 | CS(=O)(=O)c1cc(C#N)ccc1[C@@H]1C2=C(CCC2=O)N(c2cccc(C(F)(F)F)c2)C(=O)N1C(=O)NC1C2CC1C2 (some centres unmarked) [Example 48.2] |
| < 1 | CS(=O)(=O)c1cc(C#N)ccc1[C@@H]1C2=C(CCC2=O)N(c2cccc(C(F)(F)F)c2)C(=O)N1C(=O)N[C@H]1CC[C@H](O)C1 [Example 48.4] |
| 1.8 | CNC(=O)N1C(=O)N(c2cccc(C(F)(F)F)c2)C2=C(C(=O)CC2)C1c1ccc(C#N)cc1F (centres unmarked) [Example 49, 4-(4-Cyano-2-fluorophenyl)-N-methyl-2,5-dioxo-1-(3-(trifluoromethyl)phenyl)-4,5,6,7-tetrahydro-1H-cyclopenta[d]pyrimidine-3(2H)-carboxamide] |
| 1.2 | CCNC(=O)N1C(=O)N(c2cccc(C(F)(F)F)c2)C2=C(C(=O)CC2)C1c1ccc(C#N)cc1F (centres unmarked) [Example 49.1] |
| 1.3 | COCCNC(=O)N1C(=O)N(c2cccc(C(F)(F)F)c2)C2=C(C(=O)CC2)C1c1ccc(C#N)cc1F (centres unmarked) [Example 49.2] |
| 173 | CNC(=O)N1C(=O)N(c2cccc(C(F)(F)F)c2)C2=C(C(=O)CC2)[C@@H]1c1ccc(C#N)cc1F [Example 49B, (R)-4-(4-Cyano-2-fluorophenyl)-N-methyl-2,5-dioxo-1-(3-(trifluoromethyl)phenyl)-4,5,6,7-tetrahydro-1H-cyclopenta[d]pyrimidine-3(2H)-carboxamide] |
| < 1 | CNC(=O)N1C(=O)N(c2cccc(C(F)(F)F)c2)C2=C(C(=O)CC2)C1c1ccc(C#N)cc1C (centres unmarked) [Example 50.2] |
| 1.2 | CNC(=O)N1C(=O)N(c2cccc(C(F)(F)F)c2)C2=C(C(=O)CC2)C1c1ccc(C#N)cc1Cl (centres unmarked) [Example 50.4] |
| < 1 | CNC(=O)N1C(=O)N(c2cccc(C(F)(F)F)c2)C2=C(C(=O)CC2)C1c1ccc(C#N)cc1[S+](C)[O-] (centres unmarked) [Example 50.5] |
| 1.2 | CNC(=O)N1C(=O)N(c2cccc(C(F)(F)F)c2)C2=C(C(=O)CC2)C1c1ccc(C#N)cc1Br (centres unmarked) [Example 50.6] |
| < 1 | CCS(=O)(=O)c1cc(C#N)ccc1C1C2=C(CCC2=O)N(c2cccc(C(F)(F)F)c2)C(=O)N1C(=O)NC (centres unmarked) [Example 50.7] |
| < 1 | CCNC(=O)N1C(=O)N(c2cccc(C(F)(F)F)c2)C2=C(C(=O)CC2)C1c1ccc(C#N)cc1Cl (centres unmarked) [Example 51.2] |
| < 1 | CCNC(=O)N1C(=O)N(c2cccc(C(F)(F)F)c2)C2=C(C(=O)CC2)C1c1ccc(C#N)cc1[S+](C)[O-] (centres unmarked) [Example 51.4] |
| < 1 | N#Cc1ccc(C2C3=C(CCC3=O)N(c3cccc(C(F)F)c3)C(=O)N2C(=O)NCCCO)cc1 (centres unmarked) [Example 52, 4-(4-Cyanophenyl)-1-(3-(difluoromethyl)phenyl)-N-(3-hydroxypropyl)-2,5-dioxo-4,5,6,7-tetrahydro-1H-cyclopenta[d]pyrimidine-3(2H)-carboxamide] |
| < 1 | COCCNC(=O)N1C(=O)N(c2cccc(C(F)F)c2)C2=C(C(=O)CC2)C1c1ccc(C#N)cc1 (centres unmarked) [Example 52.4] |
